Experimental data from patent US8497083B2, “Fructosyl amino acid oxidase” (priority 2009, dated 2013).

Molecular target: fructosyl amino acid oxidase from Phaeosphaeria nodorum (PnFPOX, SEQ ID NO: 1) variant N56A (Parastagonospora nodorum, UniProt Q0UIL6, N56A)
Experiment: Oxidase activity kinetics (4AA/TODB/POD), PnFPOX N56A mutant
Assay type: biochemical
Conditions: purified enzyme, 25° C., pH 7.0
Description: As used herein “oxidase activity” is an enzymatic activity (Vmax) of the fructosyl amino acid oxidase to catalyze oxidation of fructosyl amino acid to generate 2-keto-D-glucose and the corresponding amino acid while utilizing oxygen as an electron acceptor. The oxidase activity may be assayed by measuring the amount of generated H2O2 by any methods known in the art, including by way of non-limiting example, reagents for H2O2 detection such as […] (4-aminoantipyrine/N,N-Bis(4-sulfobutyl)-3-methylaniline disodium salt/horseradish peroxidase) or by Pt electrode. As used herein in the context of the relative or quantitative activity, the oxidase activity is specifically defined to be the mole amount of the substrate (fructosyl amino acid) oxidized per unit time measured by the amount of generated H2O2 at 25° C. in 10 mM PPB, pH 7.0, 1.5 mM TODB, 2 U/ml horseradish peroxidase (POD), and 1.5 mM 4-aminoantipyrine (4AA). The formation of quinoneimine dye may be measured spectrophotometrically at 546 nm.
Escherichia coli BL21 (DE3) cells harboring expression vectors of N1-1 FAOD (SEQ ID NO: 2) mutants were grown in 150 ml of LB medium containing 50 μg/ml kanamycin at 37° C. After reaching an A660 value of 0.6, 0.3 mM IPTG was added and incubated at 25° C. for an additional 5 hours. The cells were collected by centrifugation and washed twice with 0.85% NaCl.aq. Then, the cells were resuspended in 10 mM Potassium Phosphate Buffer (PPB) pH 7.0 and lysed by ultrasonic homogenizer. The lysate was centrifuged at 10,000×g, 4° C. for 10 min, and the supernatant was centrifuged at 50,000 rpm, 4° C. for 60 min, then the supernatant was dialyzed against 10 mM PPB (pH 7.0). The oxidase activity was assayed at 25° C. in 10 mM PPB, pH 7.0, 1.5 mM TODB, 2 U/ml horseradish peroxidase (POD), and 1.5 mM 4-aminoantipyrine (4AA) in the presence of substrates (0.2, 0.5, 0.75, 1, 2, 5 mM f-^αVal […]). The formation of quinoneimine dye was measured spectrophotometrically at 546 nm. The dehydrogenase activity was assayed at 25° C. in 10 mM PPB (pH 7.0), 0.6 mM DCIP, and 6 mM methoxy PMS (mPMS) in the presence of substrates (0.2, 0.5, 1, 2, 5 mM f-^αVal or 5 mM f-^αVal-His).
Mutations were introduced using site-directed mutagenesis as in Example 1, and BL21 (DE3) cells were transformed with an expression vector containing wild-type or mutant PnFPOX (SEQ ID NO: 1). The cultured cells were resuspended in 10 mM PPB, pH 7.0, and lysed by sonication. The lysate was centrifuged at 10,000 g at 4° C. for 20 min, and the supernatant was centrifuged at 50,000 rpm at 4° C. for 60 min. The oxidase and dehydrogenase activities were measured as in Example 1.
BL21 (DE3) transformed with pEPN (pET28a-PnFPOX)-N56A was grown aerobically at 37° C. in LB medium (2 l) containing 50 μg kanamycin ml^−1. […]

Chain of fructosyl amino acid oxidase from Phaeosphaeria nodorum (PnFPOX, SEQ ID NO: 1) variant N56A (Q0UIL6 whole entry N56A): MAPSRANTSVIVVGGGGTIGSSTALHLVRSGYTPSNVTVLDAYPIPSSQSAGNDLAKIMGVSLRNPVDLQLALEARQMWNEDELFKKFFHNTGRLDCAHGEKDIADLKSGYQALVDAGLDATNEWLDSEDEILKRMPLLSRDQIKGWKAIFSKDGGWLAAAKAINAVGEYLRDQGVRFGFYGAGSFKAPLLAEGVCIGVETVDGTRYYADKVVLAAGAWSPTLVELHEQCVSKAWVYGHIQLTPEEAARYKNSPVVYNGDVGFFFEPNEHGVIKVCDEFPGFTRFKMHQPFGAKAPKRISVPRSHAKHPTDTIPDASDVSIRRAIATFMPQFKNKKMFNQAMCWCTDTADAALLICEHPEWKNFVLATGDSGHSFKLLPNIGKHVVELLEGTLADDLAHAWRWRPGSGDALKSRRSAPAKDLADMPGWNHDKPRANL

Compound `CC(C)[C@H](NCC1(O)OC[C@@H](O)[C@@H](O)[C@@H]1O)C(=O)O` (stereo partly shown) [f-αVal, fructosyl valine] has a Vmax of 4.39 U/mg.
